Measured values reported in patent US12678446B2 (PFIZER INC., priority 2020, dated 2026).

How the values were obtained:
cell toxicity CC50 = type: cell-based; conditions: human; Hep-G2 cells; mean of at least two experiments; read-out: Cell Cytotoxicity CC50
[1] = test system: RSV (RSV A2 ECACC, 0709161v); assay: RSV plaque reduction assay; type: cell-based, respiratory syncytial virus; conditions: human respiratory syncytial virus, HepG2, read-out: RSV A2 Plaque EC50, RSV A2 in Hep-G2 cells; mean of at least two experiments unless noted (n = 1)
Method: Compounds w ere subjected to RSV plaque reduction assays according to the following protocol.
Hep-G2 cells (ECACC, 85011430) were passaged in flasks and seeded in 24-well plates in DMEM containing antibiotics and supplemented with 10% FBS. During inoculation and subsequent incubation, cells were cultured in DMEM containing 2% FBS. 100 plaque forming unit/well of RSV (RSV A2 ECACC, 0709161v) was mixed with eight serial dilutions of compound. Subsequently, 100 μL of the virus/compound mixtures was added to confluent Hep-G2 cell monolayers. The cells and virus/compound mixtures were incubated at 37° C. in a humidified 5% CO2 incubator for 2 h prior to removal of the inoculum and addition of 1 mL of overlay (DMEM containing 2% FBS and 0.8% CMC) containing compound dilutions. The cells and were incubated at 37° C. in a humidified 5% CO2 incubator for 2 days.
Cells were washed with PBS before adding 75/25% v/v EtOH MeOH, for 3 min. Fixative was removed and plates were washed with PBS. A pre-titrated amount of the primary antibody was added in 200 μL PBS/2% milk powder, and plates incubated for 90 min at 37° C. The plates were washed 3 times with PBS/0.05% Tween20 before addition of rabbit anti-goat horse radish peroxidase in 200 μL PBS/2% milk powder, and incubated for 1 h at 37° C. Following three wash steps with PBS/0.05% Tween20, 200 μL ready-to-use TrueBlue was added and plates were incubated at rt for 10-15 min before washing with water. After removal of water, plates were air-dried in the dark.
Plates were scanned and analysed using the Immunospot S6 Macro analyser, which is equipped with BioSpot analysis software for counting immunostained plaques (virospots). Plaque counts were used to calculate % infection relative to the mean of the plaque count in the virus control wells for RSV. […] Unless otherwise noted, plaque EC50 and cell toxicity CC50 values are a mean of at least two experiments and figures are rounded to whole units.

Compound | CC50 (cell toxicity CC50) | EC50 [1]
CO[C@@H]1CCN(c2ccc(-c3nn4c(c3C(=O)N[C@H]3N=C(c5ccccc5)c5cccc(F)c5NC3=O)O[C@H](C)CC4)cn2)C1 [Example 145, (5R)-N-[(3S)-9-fluoro-2-oxo-5-phenyl-1,3-dihydro-1,4-benzodiazepin-3-yl]-2-[6-[(3R)-3-methoxypyrrolidin-1-yl]pyridin-3-yl]-5-methyl-6,7-dihydro-5H-pyrazolo[5,1-b][1,3]oxazine-3-carboxamide] | > 25 µM | 278 nM
CC(C)n1cc(-c2nn3c(c2C(=O)N[C@H]2N=C(c4ccccc4)c4ccccc4NC2=O)OCCC3)cn1 [Example 103, N-[(3S)-2-oxo-5-phenyl-1,3-dihydro-1,4-benzodiazepin-3-yl]-2-(1-propan-2-ylpyrazol-4-yl)-6,7-dihydro-5H-pyrazolo[5,1-b][1,3]oxazine-3-carboxamide] | > 25 µM | 132 nM
C[C@@H]1CCn2nc(-c3ccoc3)c(C(=O)N[C@H]3N=C(c4ccccc4)c4cccc(F)c4NC3=O)c2O1 [Example 61, (5R)-N-[(3S)-9-fluoro-2-oxo-5-phenyl-1,3-dihydro-1,4-benzodiazepin-3-yl]-2-(3-furyl)-5-methyl-6,7-dihydro-5H-pyrazolo[5,1-b][1,3]oxazine-3-carboxamide] | > 25 µM | 161 nM
O=C(N[C@H]1N=C(c2ccccc2)c2cccc(F)c2NC1=O)c1c(-c2ccccc2F)nn2c1OC(CO)CC2 (single isomer, unassigned) [Example 190-1, (5R*)-N-[(3S)-9-Fluoro-2-oxo-5-phenyl-1,3-dihydro-1,4-benzodiazepin-3-yl]-2-(2-fluorophenyl)-5-(hydroxymethyl)-6,7-dihydro-5H-pyrazolo[5,1-b][1,3]oxazine-3-carboxamide] | > 25 µM | 98 nM
[2H]C([2H])([2H])Nc1ccc(-c2nn3c(c2C(=O)N[C@H]2N=C(c4ccccc4)c4cccc(F)c4NC2=O)O[C@H](C)CC3)cn1 [Example 71, (5R)-5-Methyl-N-[(3S)-9-fluoro-2-oxo-5-phenyl-1,3-dihydro-1,4-benzodiazepin-3-yl]-2-[6-(trideuteriomethylamino)pyridin-3-yl]-6,7-dihydro-5H-pyrazolo[5,1-b][1,3]oxazine-3-carboxamide] | > 25 µM | 91 nM
CCS(=O)(=O)c1ccc(-c2nn3c(c2C(=O)N[C@H]2N=C(c4ccccc4)c4cccc(F)c4NC2=O)O[C@H](C)CC3)c(F)c1 [Example 197, (5R)-2-(4-Ethylsulfonyl-2-fluorophenyl)-N-[(3S)-9-fluoro-2-oxo-5-phenyl-1,3-dihydro-1,4-benzodiazepin-3-yl]-5-methyl-6,7-dihydro-5H-pyrazolo[5,1-b][1,3]oxazine-3-carboxamide] | > 25 µM | 97 nM
C[C@@H]1CCn2nc(-c3ccc(N4C[C@H]5C[C@@H]4CO5)nc3F)c(C(=O)N[C@H]3N=C(c4ccccc4)c4cccc(F)c4NC3=O)c2O1 (single isomer, unassigned) [Example 90] | > 25 µM | 20 nM
O=C(N[C@H]1N=C(c2ccccc2)c2ccccc2NC1=O)c1c(-c2ccccc2F)nn2c1OCC1(COC1)C2 [Example 29] | > 25 µM | 78 nM
C[C@@H]1CCn2nc(-c3cnn(CC(F)(F)F)c3)c(C(=O)N[C@H]3N=C(c4ccccc4)c4cccc(F)c4NC3=O)c2O1 [Example 118, (5R)-N-[(3S)-9-fluoro-2-oxo-5-phenyl-1,3-dihydro-1,4-benzodiazepin-3-yl]-5-methyl-2-[1-(2,2,2-trifluoroethyl)pyrazol-4-yl]-6,7-dihydro-5H-pyrazolo[5,1-b][1,3]oxazine-3-carboxamide] | > 25 µM | 43 nM
O=C(N[C@H]1N=C(c2ccccc2)c2cccc(F)c2NC1=O)c1c(-c2ccc(F)cc2F)nn2c1S(=O)(=O)CCC2 [Example 32, 2-(2,4-Difluorophenyl)-N-[(3S)-9-fluoro-2-oxo-5-phenyl-2,3-dihydro-1H-1,4-benzodiazepin-3-yl]-4,4-dioxo-5H,6H,7H-4λ^6-pyrazolo[3,2-b][1,3]thiazine-3-carboxamide] | > 25 µM | 411 nM
